Results reported in patent US9029368B2, “3,7-disubstituted octahydro-2H-pyrido[4,3-E][1,3]oxazin-2-one antibiotics” (Actelion Pharmaceuticals Ltd., priority 2011, dated 2015).
In brackets after ≈: the same amount, converted by molar mass.

system: S. aureus 29213; assay: Bacterial growth minimal inhibitory concentrations (microdilution in cation-adjusted Mueller-Hinton Broth, CLSI M7-A7); format: cell-based; details: Staphylococcus aureus, 29213, microdilution method
Procedure: Bacterial Growth Minimal Inhibitory Concentrations: Minimal inhibitory concentrations (MICs; mg/l) were determined in cation-adjusted Mueller-Hinton Broth by a microdilution method following the description given in “Methods for Dilution Antimicrobial Susceptibility Tests for Bacteria that Grow Aerobically”, Approved standard, 7th ed., Clinical and Laboratory Standards Institute (CLSI) Document M7-A7, Wayne, Pa., USA, 2006. All Example compounds were tested against several Gram positive and Gram negative bacteria.

MIC [µg/mL]	SMILES
≤ 0.031	COc1ccc2ncc(F)c(CCN3CC[C@@H]4CN(c5ccc6c(c5)NC(=O)CO6)C(=O)O[C@H]4C3)c2n1 (racemic) [Example 5, rac-(4aR*,8aR*)-7-[2-(3-fluoro-6-methoxy-[1,5]naphthyridin-4-yl)-ethyl]3-(3-oxo-3,4-dihydro-2H-benzo[1,4]oxazin-6-yl)-octahydro-pyrido[4,3-e][1,3]oxazin-2-one]
0.5 (≈ 1.02 µM)	O=C1O[C@H]2CN(CC3Cn4c(=O)ccc5ncc(F)c3c54)CC[C@@H]2CN1c1ccc2c(c1)OCCO2 (mixture of isomers) [Example 30, (RS)-4-[(4aR*,8aR*)-3-(2,3-dihydro-benzo[1,4]dioxin-6-yl)-2-oxo-octahydro-pyrido[4,3-e][1,3]oxazin-7-ylmethyl]-3-fluoro-4,5-dihydro-pyrrolo[3,2,1-de][1,5]naphthyridin-7-one]
≤ 0.031	COc1ccc2ncc(F)c(CCN3CC[C@@H]4CN(c5ccc6c(c5)NC(=O)CS6)C(=O)O[C@H]4C3)c2n1 (racemic) [Example 7, rac-(4aR*,8aR*)-7-[2-(3-fluoro-6-methoxy-[1,5]naphthyridin-4-yl)-ethyl]-3-(3-oxo-3,4-dihydro-2H-benzo[1,4]thiazin-6-yl)-octahydro-pyrido[4,3-e][1,3]oxazin-2-one]
≤ 0.031	COc1ccc2ccc(=O)n(CCN3CC[C@@H]4CN(c5ccc6c(c5)NC(=O)CS6)C(=O)O[C@H]4C3)c2n1 (racemic) [Example 31, rac-(4aR*,8aR*)-7-(2-(7-methoxy-2-oxo-1,8-naphthyridin-1(2H)-yl)ethyl)-3-(3-oxo-3,4-dihydro-2H-benzo[b][1,4]thiazin-6-yl)octahydro-2H-pyrido[4,3-e][1,3]oxazin-2-one]
≤ 0.031	COc1ccc2ncc(F)c(CCN3CC[C@@H]4CN(c5ccc6c(c5)OCCO6)C(=O)O[C@H]4C3)c2n1 (single isomer, unassigned) [Example 1]
≤ 0.031	COc1ccc2ncc(F)c(CCN3CC[C@@H]4CN(c5ccc6c(n5)NC(=O)CO6)C(=O)O[C@H]4C3)c2n1 (racemic) [Example 19, rac-(4aR*,8aR*)-7-[2-(3-fluoro-6-methoxy-[1,5]naphthyridin-4-yl)-ethyl]3-(3-oxo-3,4-dihydro-2H-pyrido[3,2-b][1,4]oxazin-6-yl)-octahydro-pyrido[4,3-e][1,3]oxazin-2-one]
0.25 (≈ 0.509 µM)	O=C1O[C@H]2CN(C[C@H]3Cc4c(F)ccc5ccc(=O)n3c45)CC[C@@H]2CN1c1ccc2c(c1)OCCO2 (relative stereo) [Example 29, (R)-2-[(4aR*,8aR*)-3-(2,3-dihydro-benzo[1,4]dioxin-6-yl)-2-oxo-octahydro-pyrido[4,3-e][1,3]oxazin-7-ylmethyl]-9-fluoro-1,2-dihydro-pyrrolo[3,2,1-ij]quinolin-4-one]
≤ 0.031	COc1ccc2ccc(=O)n(CCN3CC[C@@H]4CN(c5ccc6c(n5)NC(=O)CS6)C(=O)O[C@H]4C3)c2n1 (racemic) [Example 26, rac-(4aR*,8aR*)-7-[2-(7-methoxy-2-oxo-2H-[1,8]naphthyridin-1-yl)-ethyl]-3-(3-oxo-3,4-dihydro-2H-pyrido[3,2-b][1,4]thiazin-6-yl)-octahydro-pyrido[4,3-e][1,3]oxazin-2-one]
0.125 (≈ 0.239 µM)	COc1ccc2ncc(F)c(C(O)CN3CC[C@@H]4CN(c5ccc6c(c5)NC(=O)CO6)C(=O)O[C@H]4C3)c2n1 (mixture of isomers) [Example 32, (4aR*,8aR*)-7-((2RS)-2-(3-fluoro-6-methoxy-1,5-naphthyridin-4-yl)-2-hydroxyethyl)-3-(3-oxo-3,4-dihydro-2H-benzo[b][1,4]oxazin-6-yl)octahydro-2H-pyrido[4,3-e][1,3]oxazin-2-one]
≤ 0.031	COc1ccc2ncc(=O)n(CCN3CC[C@@H]4CN(c5ccc6c(c5)OCCO6)C(=O)O[C@H]4C3)c2c1 (racemic) [Example 9, rac-(4aR*,8aR*)-3-(2,3-dihydro-benzo[1,4]dioxin-6-yl)-7-[2-(7-methoxy-2-oxo-2H-quinoxalin-1-yl)-ethyl]-octahydro-pyrido[4,3-e][1,3]oxazin-2-one]
≤ 0.031	COc1ccc2ccc(=O)n(CCN3CC[C@@H]4CN(c5ccc6c(c5)OCCO6)C(=O)O[C@H]4C3)c2c1 (racemic) [Example 8, rac-(4aR*,8aR*)-3-(2,3-dihydro-benzo[1,4]dioxin-6-yl)-7-[2-(7-methoxy-2-oxo-2H-quinolin-1-yl)-ethyl]-octahydro-pyrido[4,3-e][1,3]oxazin-2-one]
≤ 0.031	COc1ccc2ccc(=O)n(CCN3CC[C@@H]4CN(c5ccc6c(n5)NC(=O)CO6)C(=O)O[C@H]4C3)c2n1 (racemic) [Example 25, rac-(4aR*,8aR*)-7-[2-(7-methoxy-2-oxo-2H-[1,8]naphthyridin-1-yl)-ethyl]-3-(3-oxo-3,4-dihydro-2H-pyrido[3,2-b][1,4]oxazin-6-yl)-octahydro-pyrido[4,3-e][1,3]oxazin-2-one]

More lines, now with the values behind:

SMILES	MIC [µg/mL]
COc1cnc2ccc(=O)n(CCN3CC[C@@H]4CN(c5ccc6c(c5)OCCO6)C(=O)O[C@H]4C3)c2n1 (racemic) [Example 12, rac-(4aR*,8aR*)-3-(2,3-dihydro-benzo[1,4]dioxin-6-yl)-7-[2-(3-methoxy-6-oxo-6H-pyrido[2,3-b]pyrazin-5-yl)-ethyl]-octahydro-pyrido[4,3-e][1,3]oxazin-2-one]	≤ 0.031
COc1ccc2ncc(=O)n(CCN3CC[C@@H]4CN(c5ccc6c(c5)OCCO6)C(=O)O[C@H]4C3)c2n1 (racemic) [Example 11, rac-(4aR*,8aR*)-3-(2,3-dihydro-benzo[1,4]dioxin-6-yl)-7-[2-(6-methoxy-3-oxo-3H-pyrido[2,3-b]pyrazin-4-yl)-ethyl]-octahydro-pyrido[4,3-e][1,3]oxazin-2-one]	≤ 0.031
COc1ccc2ncc(F)c(CCN3CC[C@@H]4CN(c5cc6c(nn5)OCCO6)C(=O)O[C@H]4C3)c2n1 (racemic) [Example 23, rac-(4aR*,8aR*)-3-(6,7-dihydro-[1,4]dioxino[2,3-c]pyridazin-3-yl)-7-[2-(3-fluoro-6-methoxy-[1,5]naphthyridin-4-yl)-ethyl]-octahydro-pyrido[4,3-e][1,3]oxazin-2-one]	≤ 0.031
COc1ccc2ncc(F)c([C@H](O)CN3CC[C@H]4CN(c5ccc6c(c5)OCCO6)C(=O)O[C@@H]4C3)c2n1 (single isomer, unassigned) [Example 14]	≤ 0.031
COc1ccc2ncc(F)c(CCN3CC[C@@H]4CN(c5cc6c(cn5)OCCO6)C(=O)O[C@H]4C3)c2n1 (racemic) [Example 24, rac-(4aR*,8aR*)-3-(2,3-dihydro-[1,4]dioxino[2,3-c]pyridin-7-yl)-7-[2-(3-fluoro-6-methoxy-[1,5]naphthyridin-4-yl)-ethyl]-octahydro-pyrido[4,3-e][1,3]oxazin-2-one]	≤ 0.031
COc1ccc2ccc(F)c(C(O)CN3CC[C@@H]4CN(c5ccc6c(c5)OCCO6)C(=O)O[C@H]4C3)c2n1 (mixture of isomers) [Example 16, (4aR*,8aR*)-3-(2,3-dihydro-benzo[1,4]dioxin-6-yl)-7-[(2RS)-2-(7-fluoro-2-methoxy-quinolin-8-yl)-2-hydroxy-ethyl]-octahydro-pyrido[4,3-e][1,3]oxazin-2-one]	0.125 (≈ 0.245 µM)
COc1ccc2ncc(F)c(CCN3CC[C@@H]4CN(c5cc6c(nn5)OCCS6)C(=O)O[C@H]4C3)c2n1 (racemic) [Example 27, rac-(4aR*,8aR*)-3-(6,7-dihydro-8-oxa-5-thia-1,2-diaza-naphthalen-3-yl)-7-[2-(3-fluoro-6-methoxy-[1,5]naphthyridin-4-yl)-ethyl]-octahydro-pyrido[4,3-e][1,3]oxazin-2-one]	≤ 0.031
COc1ccc2ncc(F)c(CCN3CC[C@@H]4CN(c5cnc6c(c5)OCCO6)C(=O)O[C@H]4C3)c2n1 (racemic) [Example 22, rac-(4aR*,8aR*)-3-(2,3-dihydro-[1,4]dioxino[2,3-b]pyridin-7-yl)-7-[2-(3-fluoro-6-methoxy-[1,5]naphthyridin-4-yl)-ethyl]-octahydro-pyrido[4,3-e][1,3]oxazin-2-one]	≤ 0.031
COc1ccc2ncc(=O)n(CCN3CC[C@@H]4CN(c5cc6c(nn5)OCCS6)C(=O)O[C@H]4C3)c2n1 (racemic) [Example 28, rac-(4aR*,8aR*)-3-(6,7-dihydro-8-oxa-5-thia-1,2-diaza-naphthalen-3-yl)-7-[2-(6-methoxy-3-oxo-3H-pyrido[2,3-b]pyrazin-4-yl)-ethyl]-octahydro-pyrido[4,3-e][1,3]oxazin-2-one]	≤ 0.031
COc1ccc2ccc(=O)n(CCN3CC[C@@H]4CN(c5ccc6c(c5)OCCO6)C(=O)O[C@H]4C3)c2n1 (racemic) [Example 10, rac-(4aR*,8aR*)-3-(2,3-dihydro-benzo[1,4]dioxin-6-yl)-7-[2-(7-methoxy-2-oxo-2H-[1,8]naphthyridin-1-yl)-ethyl]-octahydro-pyrido[4,3-e][1,3]oxazin-2-one]	≤ 0.031
COc1ccc2ncc(F)c(CCN3CC[C@@H]4CN(c5ccc6c(n5)NC(=O)CS6)C(=O)O[C@H]4C3)c2n1 (single isomer, unassigned) [Example 20]	≤ 0.031
COc1ccc2ncc(F)c(CCN3CC[C@H]4CN(c5ccc6c(n5)NC(=O)CS6)C(=O)O[C@@H]4C3)c2n1 (single isomer, unassigned) [Example 21]	≤ 0.031
COc1ccc2nccc(C(O)CN3CC[C@@H]4CN(c5ccc6c(c5)OCCO6)C(=O)O[C@H]4C3)c2n1 (mixture of isomers) [Example 3, (4aR*,8aR*)-3-(2,3-dihydro-benzo[1,4]dioxin-6-yl)-7-[(2RS)-2-hydroxy-2-(6-methoxy-[1,5]naphthyridin-4-yl)-ethyl]-octahydro-pyrido[4,3-e][1,3]oxazin-2-one]	0.125 (≈ 0.254 µM)

same assay, conditions: microdilution method

MIC for S. aureus 29213 [µg/mL]	SMILES
0.125	O=C1COc2ccc(N3C[C@H]4CCN(C[C@H]5Cc6c(F)ccc7ccc(=O)n5c67)C[C@@H]4OC3=O)nc2N1 (relative stereo) [Example 33, (4aR*,8aR*)-7-0(R)-9-fluoro-4-oxo-2,4-dihydro-1H-pyrrolo[3,2,1-ij]quinolin-2-yl)methyl)-3-(3-oxo-3,4-dihydro-2H-pyrido[3,2-b][1,4]oxazin-6-yl)octahydro-2H-pyrido[4,3-e][1,3]oxazin-2-one]
